This data set concerns HeLa cells. Description: Chemical modifications on luciferase mRNA, HeLa transfection (RLU). It is filed as cell-based. The following applies: 83 ng luciferase mRNA, 18 to 22 hours. Here is the method:
The day before transfection, 20,000 HeLa cells (ATCC no. CCL-2; Manassas, Va.) were harvested by treatment with Trypsin-EDTA solution (Life Technologies, Grand Island, N.Y.) and seeded in a total volume of 100 ul EMEM medium (supplemented with 10% FCS and 1× Glutamax) per well in a 96-well cell culture plate (Corning, Manassas, Va.). The cells were grown at 37° C. in 5% CO2 atmosphere overnight. […] Lipofectamine 2000 (LifeTechnologies, Grand Island, N.Y.) was used as transfection reagent and 0.2 ul were diluted in 10 ul final volume of OPTI-MEM. After 5 minutes of incubation at room temperature, both solutions were combined and incubated an additional 15 minute at room temperature. Then the 20 ul combined solution was added to the 100 ul cell culture medium containing the HeLa cells and incubated at room temperature.
After 18 to 22 hours of incubation cells expressing luciferase were lysed with 100 ul of Passive Lysis Buffer (Promega, Madison, Wis.) according to manufacturer instructions. Aliquots of the lysates were transferred to white opaque polystyrene 96-well plates (Corning, Manassas, Va.) and combined with 100 ul complete luciferase assay solution (Promega, Madison, Wis.). […] The plate reader was a BioTek Synergy H1 (BioTek, Winooski, Vt.). The background signal of the plates without reagent was about 200 relative light units per well.

In the case of “Unmodified Luciferase: unmodified luciferase mRNA SEQ ID NO: 16, polyA about 140, Cap1”, the RLU is recorded as 33980 RLU.
